Test results: paper PMC11861906, “Structural basis for lipid-mediated activation of G protein-coupled receptor GPR55” (Nature Communications, 2025)

Key:
Format in all cases: cell-based
[1] = target: GPR55 mutant N171Q (Gα13) (Homo sapiens, UniProt Q9Y2T6, N171Q); assay: BRET² G protein dissociation assay, GPR55 N171Q with Gα13
Excerpt: (§1) To validate the functionality of the GPR55 cryo-EM construct, we conducted bioluminescence resonance energy transfer 2 (BRET²)-based G protein dissociation assays[46],[47] using an engineered heterotrimeric G13 protein. The N-terminal GFP fusion of the receptor was additionally modified with a G67A mutation to disrupt fluorescence properties. We employed human embryonic kidney (HEK) cells overexpressing wt or mutant GPR55 together with Gβ3, Gγ9-GFP, and Gα13 tagged with Renilla luciferase 8 (Rluc8).
(§2) G protein dissociation assays were performed according to the original protocols of the TRUPATH BRET² assay[47],[87] but with subtle modifications as previously described[61],[88],[89]. All reagents and cells were obtained from Thermo Fisher Scientific unless indicated otherwise. The coding sequences for the G protein biosensors[47] (Gα12-Rluc8, Gα13-Rluc8, wt Gβ3, and Gγ9-GFP), the wt GPR55, the construct used for cryo-EM (with GFP bearing a G67A mutation to disrupt fluorescence properties[48] for BRET² assays), GPR55 binding pocket mutants (G152^4.56F, G152^4.56W, N171^ECL2Q, N171^ECL2A, T176^5.33A, R253^6.62A), and the wt TBXA2R were codon-optimized for Homo sapiens, gene-synthesized, and sub-cloned into pcDNA^TM3.1(+) between NheI and HindIII restriction sites by GeneArt (Thermo Fisher Scientific). […] Freshly grown cells were washed with Dulbecco’s Balanced Salt Solution (DPBS, cat. #14200075) and detached using trypsin-ethylenediaminetetraacetic acid (trypsin-EDTA) (cat. #25300-062). Then, the cells were reconstituted to 500,000 cells per mL with fresh medium, and 1,000,000 cells were seeded into each well of a 6-well plate. After 3 h incubation at 37 °C and 5% CO2, adherent cells were transfected with 600 ng DNA (1:1:1:1 ratio of plasmid DNA for GPR55, wt Gβ3, Gγ9-GFP, and Gα12-Rluc8 or Gα13-Rluc8). Plasmid DNA was mixed with 1.5 µL Lipofectamine^TM 2000 (cat. #11668027) in Opti-MEM^TM medium (cat. #31985062) and incubated for 20 min. Then, the mixture was added to each well of the 6-well plate following 24 h incubation at 37 °C and 5% CO2. Transfected cells were washed with DPBS, detached using EDTA (Versene, cat. #15040066), and reconstituted into fresh medium at 500,000 cells mL^−1. From this suspension, 50,000 cells were seeded into each well of a white-bottom 96-well plate (Nunc^TM MicroWell^TM 96 wells, cat. #136101) following overnight incubation at 37 °C and 5% CO2. Then, the adherent cells were washed with assay medium [Hank’s balanced salt solution (HBSS, cat. #14065056) plus 20 mM HEPES pH 7.4 (cat. #15630056)] and finally reconstituted into 50 µL of the same medium. […] Methoxy e-Coelenterazine was used as luciferase substrate (Prolume Purple, NanoLight Technology, cat. #369), reconstituted at 1 mM in methanol and diluted to 37.5 µM with assay buffer (7.5 µM final assay concentration). The assay was started by the addition of 20 µL luciferase substrate to each well of the assay plate using a Multidrop^TM Combi reagent dispenser (Thermo Fisher Scientific), followed by 5 min incubation at room temperature. Then, 30 µL of agonist dilutions or DMSO control was added (final DMSO concentration 1.5%), followed by an additional 5 min incubation at room temperature. BRET² measurements were performed with a PHERAstar® FSX microplate reader (BMG LABTECH) using a BRET² filter (donor emission 370–450 nm, acceptor emission 500–530 nm) at the maximum fluorescence gain of 3600. BRET² ratios were calculated by dividing GFP emission signals from Rluc8 emission counts. Buffer-DMSO controls were subtracted from each data point to calculate ΔBRET² ratios.

[2] = target: GPR55 mutant N171A (Gα13) (Homo sapiens, UniProt Q9Y2T6, N171A); assay: BRET² G protein dissociation assay, GPR55 N171A with Gα13
Excerpt: as §1, §2

[3] = target: GPR55 cryo-EM construct (Gα13) (Homo sapiens, UniProt Q9Y2T6); assay: BRET² G protein dissociation assay, GPR55 cryo-EM construct (GFP G67A) with Gα13; conditions: for BRET2 response, Mean (plotted, Fig. S4): Cryo-EM-G67A-G13
Excerpt: as §1, §2

wt GPR55 (Gα13) = wt GPR55 (Gα13) (Homo sapiens, UniProt Q9Y2T6); assay: BRET² G protein dissociation assay, wt GPR55 with Gα13; conditions: for ΔBRET² ratio (Mean): GPR55-wt-G13
Excerpt: as §1, §2

[4] = target: GPR55 mutant G152F (Gα13) (Homo sapiens, UniProt Q9Y2T6, G152F); assay: BRET² G protein dissociation assay, GPR55 G152F with Gα13
Excerpt: as §1, §2

## Cc1cccc(N2CCN(C(=O)c3cc(S(=O)(=O)N(C)C)ccc3N3CCCC3)CC2)c1C [ML184, 3-[[4-(2,3-dimethylphenyl)-1-piperazinyl]carbonyl]-N,N-dimethyl-4-(1-pyrrolidinyl)benzenesulfonamide]
[1]; Concentration 300 pM
  Mean (plotted) BRET² response, GPR55-N171Q-G13: -0.001828
[1]; Concentration 1e-9 M
  Mean (plotted) BRET² response, GPR55-N171Q-G13: -0.002418
[1]; Concentration 3e-9 M
  Mean (plotted) BRET² response, GPR55-N171Q-G13: -0.001477
[1]; Concentration 1e-8 M
  Mean (plotted) BRET² response, GPR55-N171Q-G13: -0.0001092
[1]; Concentration 3e-8 M
  Mean (plotted) BRET² response, GPR55-N171Q-G13: -0.001125
[1]; Concentration 1e-7 M
  Mean (plotted) BRET² response, GPR55-N171Q-G13: -0.006817
[1]; Concentration 3e-7 M
  Mean (plotted) BRET² response, GPR55-N171Q-G13: -0.01585
[1]; Concentration 1e-6 M
  Mean (plotted) BRET² response, GPR55-N171Q-G13: -0.03451
[1]; Concentration 3e-6 M
  Mean (plotted) BRET² response, GPR55-N171Q-G13: -0.05647
[1]; Concentration 1e-5 M
  Mean (plotted) BRET² response, GPR55-N171Q-G13: -0.07313
[1]; Concentration 3e-5 M
  Mean (plotted) BRET² response, GPR55-N171Q-G13: -0.08032
[1]; GPR55 N171Q, Gα13
  EC50: 1410 nM
[1]; GPR55 N171Q, Gα13, 30 µM ligand, same normalization, read-out: Efficacy ± SEM (%)
  Emax at 30 µM: 76 ± 2%
[1]; N171Q mutant
  reduction of potency compared to wt GPR55: 32 fold
[2]; Concentration 300 pM
  Mean (plotted) BRET² response, GPR55-N171A-G13: 0.002752
[2]; Concentration 1e-9 M
  Mean (plotted) BRET² response, GPR55-N171A-G13: 0.003846
[2]; Concentration 3e-9 M
  Mean (plotted) BRET² response, GPR55-N171A-G13: -0.0003036
[2]; Concentration 1e-8 M
  Mean (plotted) BRET² response, GPR55-N171A-G13: 0.001966
[2]; Concentration 3e-8 M
  Mean (plotted) BRET² response, GPR55-N171A-G13: -0.0002448
[2]; Concentration 1e-7 M
  Mean (plotted) BRET² response, GPR55-N171A-G13: -0.005366
[2]; Concentration 3e-7 M
  Mean (plotted) BRET² response, GPR55-N171A-G13: -0.01646
[2]; Concentration 1e-6 M
  Mean (plotted) BRET² response, GPR55-N171A-G13: -0.04126
[2]; Concentration 3e-6 M
  Mean (plotted) BRET² response, GPR55-N171A-G13: -0.05866
[2]; Concentration 1e-5 M
  Mean (plotted) BRET² response, GPR55-N171A-G13: -0.07333
[2]; Concentration 3e-5 M
  Mean (plotted) BRET² response, GPR55-N171A-G13: -0.07936
[2]; GPR55 N171A, Gα13
  EC50: 1050 nM
[2]; GPR55 N171A, Gα13, 30 µM ligand, same normalization, read-out: Efficacy ± SEM (%)
  Emax at 30 µM: 73 ± 3%
[2]; N171A mutant
  reduction of potency compared to wt GPR55: 24 fold
[3]; Cryo-EM construct (G67A), Gα13
  EC50: 18.2 nM
[3]; Cryo-EM construct (G67A), Gα13, 30 µM ligand, same normalization, read-out: Efficacy ± SEM (%)
  Emax at 30 µM: 86 ± 2%
[3]; concentration 300 pM
  BRET2 response, Mean (plotted, Fig. S4): 0.0007
[3]; concentration 1e-9 M
  BRET2 response, Mean (plotted, Fig. S4): -0.00467
[3]; concentration 3e-9 M
  BRET2 response, Mean (plotted, Fig. S4): -0.01143
[3]; concentration 1e-8 M
  BRET2 response, Mean (plotted, Fig. S4): -0.02458
[3]; concentration 3e-8 M
  BRET2 response, Mean (plotted, Fig. S4): -0.03698
[3]; concentration 1e-7 M
  BRET2 response, Mean (plotted, Fig. S4): -0.04541
[3]; concentration 3e-7 M
  BRET2 response, Mean (plotted, Fig. S4): -0.05211
[3]; concentration 1e-6 M
  BRET2 response, Mean (plotted, Fig. S4): -0.05461
[3]; concentration 3e-6 M
  BRET2 response, Mean (plotted, Fig. S4): -0.05649
[3]; concentration 1e-5 M
  BRET2 response, Mean (plotted, Fig. S4): -0.05972
[3]; concentration 3e-5 M
  BRET2 response, Mean (plotted, Fig. S4): -0.06146
Wt GPR55 (Gα13); 3e-10 M
  ΔBRET² ratio (Mean): -0.004943
Wt GPR55 (Gα13); 1e-9 M
  ΔBRET² ratio (Mean): -0.002883
Wt GPR55 (Gα13); 3e-9 M
  ΔBRET² ratio (Mean): -0.008889
Wt GPR55 (Gα13); 1e-8 M
  ΔBRET² ratio (Mean): -0.01695
Wt GPR55 (Gα13); 3e-8 M
  ΔBRET² ratio (Mean): -0.02473
Wt GPR55 (Gα13); 1e-7 M
  ΔBRET² ratio (Mean): -0.03149
Wt GPR55 (Gα13); 3e-7 M
  ΔBRET² ratio (Mean): -0.03626
Wt GPR55 (Gα13); 1e-6 M
  ΔBRET² ratio (Mean): -0.04111
Wt GPR55 (Gα13); 3e-6 M
  ΔBRET² ratio (Mean): -0.04451
Wt GPR55 (Gα13); 1e-5 M
  ΔBRET² ratio (Mean): -0.04913
Wt GPR55 (Gα13); 3e-5 M
  ΔBRET² ratio (Mean): -0.04899
Wt GPR55 (Gα13); wt GPR55, Gα13
  G protein activation at GPR55-transfected cells (in words): induced Gα13 activation in a concentration-dependent manner
Wt GPR55 (Gα13); wt GPR55, Gα13, 30 µM ligand, 100% = wt GPR55 plus G13-biosensor at 30 µM ML184, 0% = mock plus G13-biosensor, read-out: Efficacy ± SEM (%)
  Emax at 30 µM: 100 ± 2%
Wt GPR55 (Gα13); wt GPR55, Gα13, read-out: EC50 (Gα13 activation)
  EC50: 44.7 nM
[4]; Concentration 300 pM
  Mean (plotted) BRET² response, GPR55-G152F-G13: -0.004043
[4]; Concentration 1e-9 M
  Mean (plotted) BRET² response, GPR55-G152F-G13: -0.005951
[4]; Concentration 3e-9 M
  Mean (plotted) BRET² response, GPR55-G152F-G13: -0.01719
[4]; Concentration 1e-8 M
  Mean (plotted) BRET² response, GPR55-G152F-G13: -0.03259
[4]; Concentration 3e-8 M
  Mean (plotted) BRET² response, GPR55-G152F-G13: -0.04406
[4]; Concentration 1e-7 M
  Mean (plotted) BRET² response, GPR55-G152F-G13: -0.05628
[4]; Concentration 3e-7 M
  Mean (plotted) BRET² response, GPR55-G152F-G13: -0.06251
[4]; Concentration 1e-6 M
  Mean (plotted) BRET² response, GPR55-G152F-G13: -0.06831
[4]; Concentration 3e-6 M
  Mean (plotted) BRET² response, GPR55-G152F-G13: -0.07057
[4]; Concentration 1e-5 M
  Mean (plotted) BRET² response, GPR55-G152F-G13: -0.07761
[4]; Concentration 3e-5 M
  Mean (plotted) BRET² response, GPR55-G152F-G13: -0.07919
[4]; G152F mutant
  reduction of potency compared to wt GPR55: remained unchanged
[4]; GPR55 G152F, Gα13
  EC50: 21.9 nM
[4]; GPR55 G152F, Gα13, 30 µM ligand, same normalization, read-out: Efficacy ± SEM (%)
  Emax at 30 µM: 108 ± 3%
